Experimental data: patent publication US9259389B2, “Pharmaceutical oral dosage form containing a synthetic oligosaccharide” (ENDOTIS PHARMA, priority 2009, dated 2016)
Like-named read-outs stand apart in the source and are kept apart here.

Assay: Bioavailability after Direct Intra-Duodenal Infusion (DIDI) administration in rat
Format: in vivo
Details: for bioavailability: female, Wistar Han, plasma, other: direct intra-duodenal infusion (DIDI), read-out: DIDI (bioavailability F after Direct Intra-Duodenal Infusion)
Text: Pharmacokinetic Study after Direct Intra-Duodenal Injection:
Direct Intra-Duodenal Infusion (DIDI) has been performed in fasted female Wistar Han rats (175-250 g) to determine the ability of oligosaccharide compounds, in a formulation according to the present invention, to cross the intestinal barrier.
Animals were anesthetized with isoflurane gas in a closed induction chamber and held under anesthesia (3% isoflurane and 2.4 l/min rate) until sacrifice at the end of the experiment. After shaving, a laparotomy was performed and the duodenum exposed. A small pore was created upper the bile duct into the duodenum using a high temperature cautery fine tip. A flexible catheter was inserted into the duodenal lumen through the hole and the upper part of the duodenum was closed and the catheter immobilized by clipping with a forceps. A syringe containing the formulation according to the present invention and diluted as indicated below was placed onto the flexible catheter and the syringe's plunger was slowly depressed releasing the material into the duodenum. Immediately after, a 0.9% NaCl solution was injected (50 μl) to ensure complete compound administration. At this step, peritoneal cavity and skin of the rats were closed using silk suture.
The dose of the oligosaccharide compound according to the present invention to be administrated is 2 mg/kg of body weight or 4 mg/kg of body weight. Therefore, each rat received the quantity of the formulation corresponding to this dosage (i.e. for the dose of 2 mg/kg of body weight, 0.4 mg per rat of 200 g, corresponding to 40 mg of formulation for a formulation containing 1% by weight of the oligosaccharide), diluted extemporaneously at ambient temperature in water for injection with a total volume of administration of 500 μl.
Sometimes, it can be advantageous to first heat the formulation to 37° C. for 15 min under agitation to optimize dilution of the formulation.
Blood samples were collected over a certain period of time (in general 0.25; 0.5; 1; 1.5; 2; 2.5 h) and plasma analyzed as described below.
Quantification of the Compounds in Plasma:
Plasma concentration of the synthetic oligosaccharide (μg compound/mL plasma) was determined using a bioassay based on the factor Xa inhibitory activity of the compounds in the presence of antithrombin (AT). First, AT was added in excess to the plasma sample, allowing 1/1 oligosaccharide/AT complex formation. Factor Xa was then added in excess, and remaining active factor Xa was determined by spectrophotometry at 405 nm using a chromogenic reagent as a substrate. A dose-response curve was established for each compound to be quantified in rat plasma.
Pharmacokinetic Study after Intravenous Administration: […]

Fondaparinux Benzathine
DIDI (bioavailability F after Direct Intra-Duodenal Infusion) (active: Fondaparinux Benzathine, 2 mg/kg, AUC0-2 DIDI vs intravenous): 2 ± 1%

CCC1(C(=O)[O-])OC(OC2C(COS(=O)(=O)[O-])OC(OC3COC(OC4C(COS(=O)(=O)[O-])OC(OC)C(OS(=O)(=O)[O-])C4OC)[C@H](OCC(=O)[O-])C3OC)C(OS(=O)(=O)[O-])C2OS(=O)(=O)[O-])C(OC)C(OC)C1OC1OC(COS(=O)(=O)[O-])C(OCCOCCOCCOCCN)C(OC)C1OC.[Na+].[Na+].[Na+].[Na+].[Na+].[Na+].[Na+].[Na+] (stereo partly shown) [Sodium salt of 147 without formulation]
bioavailability (active: sodium salt of compound 147, AUC0-2 DIDI vs intravenous): 1 ± 10%

CO[C@H]1O[C@H](COS(=O)(=O)O)[C@@H](O[C@@H]2O[C@@H](C(=O)O)[C@@H](O[C@H]3O[C@H](COS(=O)(=O)O)[C@@H](O[C@@H]4O[C@H](C(=O)O)[C@@H](O[C@H]5O[C@H](COS(=O)(=O)O)[C@@H](O)[C@H](O)[C@H]5NS(=O)(=O)O)[C@H](O)[C@H]4O)[C@H](OS(=O)(=O)O)[C@H]3NS(=O)(=O)O)[C@H](O)[C@H]2OS(=O)(=O)O)[C@H](O)[C@H]1NS(=O)(=O)O [Fondaparinux, reference compound]
bioavailability (active: sodium fondaparinux, dose delivered 2 mg/kg, AUC0-2 DIDI vs intravenous): 3%

CCCCOC1C(COS(=O)(=O)[O-])OC(OC2C(OC)C(OC)C(OC3C(COS(=O)(=O)[O-])OC(OC4COC(OC5C(COS(=O)(=O)[O-])OC(OC)C(OS(=O)(=O)[O-])C5O)[C@H](OCC(=O)[O-])C4OC)C(OS(=O)(=O)[O-])C3OS(=O)(=O)[O-])OC2(CC)C(=O)[O-])C(N)C1OCCCC.[Na+].[Na+].[Na+].[Na+].[Na+].[Na+].[Na+].[Na+] (stereo partly shown) [Sodium salt of 122 without formulation]
bioavailability (active: sodium salt of compound 122, AUC0-2 DIDI vs intravenous): 2.5 ± 1%
